Columns and labels:
E. coli bacteria = assay: Extraction efficiency test of ATP, E. coli suspension; format: cell-based; settings: one million cells per milliliter
Description: (§1) The extraction efficiency of the release reagent based on a quaternary ethoxylated amine and an ethoxylated amine mixture was also tested against the boiling tris-EDTA buffer and the perchloric acid extraction methods. The samples consisted of whole blood diluted with physiological saline 200 times, a suspension of E. coli bacteria in concentration of one million cells per milliliter, and a suspension of green algae, Chlorella sp. […]
(§2) Measurement of ATP by bioluminescence: 100 microliter aliquots of extracted sample solution were pipetted into transparent glass cuvettes and these were placed into the light-tight reaction chamber of a photon counter. […] The light emission was integrated for 10 seconds and the results read on the digital display as relative light units. The relative light units were converted to ATP by internal standardization whereby a known quantity of ATP standard was added into an aliquot of the extracted sample and measured as above. […] By subtracting the reading of the sample from that of the sample+added ATP standard a conversion factor for relative light units to ATP was calculated.

[1] = system: whole blood diluted with physiological saline 200 times; assay: Extraction efficiency test of ATP, whole blood; format: cell-based; settings: Whole blood diluted 200 times
Description: as §1, §2

[O-][Cl+3]([O-])([O-])O [Perchloric acid method, perchloric acid]
ATP extraction efficiency (E. coli bacteria): 3%
ATP extraction efficiency [1]: 7%

Reference: patent US20050042661A1, “Use of novel compounds to release nucleotides from living cells” (priority 2003, published 2005)
